These results are taken from article PMC11473416, “Coumarin-chalcone derivatives as dual NLRP1 and NLRP3 inflammasome inhibitors targeting oxidative stress and inflammation in neurotoxin-induced HMC3 and BE(2)-M17 cell models of Parkinson's disease” (Frontiers in Aging Neuroscience, 2024).

“And” between values parts separate entries of the source, which are not always exact repeats. Equal values may be shown once. Read-outs that look alike come from different tables or passages of the source.

Details of series [1]: method as in Chiu et al., 2021. The note with it: in vivo pharmacokinetic assessment ref Chiu et al., 2021; cited from earlier work.
On the set-up of series [2]: method as in Huang C. C. et al., 2021. The note with it: parallel artificial membrane permeability assay ref Huang C. C. et al., 2021; cited from earlier work.
A further series deals with BE(2)-M17 cells. The experiment in a line: cytotoxicity MTT assay in BE(2)-M17 cells. It counts as cell-based, human. Particulars: MPP^+ at 0.62 mM. As for the experimental part: (§1) Human HMC3 microglial (CRL-3304) and neuroblastoma BE(2)-M17 (CRL-2267) cells were obtained from American Type Culture Collection. BE(2)-M17 develops a better dopaminergic phenotype than SH-SY5Y when treated with retinoic acid to direct neuronal differentiation (Carvajal-Oliveros et al., [2022]). Cells were routinely maintained in Dulbecco's Modified Eagle Medium-Nutrient Mixture F12 (DMEM-F12) supplemented with 10% fetal bovine serum (FBS; Thermo Fisher Scientific, Waltham, MA, USA) in a 37°C incubator, with 95% relative humidity and 5% CO2 (NuAire, Plymouth, MN, USA).
(§2) To evaluate cytotoxicity of LM compounds and MPP^+, HMC3 (1 × 10^4) or BE(2)-M17 (2 × 10^4) cells were plated on 96-well dishes, grown for 20 h, and treated with LM compounds (1–100 μM) or MPP^+ [HMC3: 0–8 mM; BE(2)-M17: 0–5 mM]. Next day, 20 μl of tetrazolium dye 3-(4,5-dimethylthiazol-2-yl)-2,5-diphenyltetrazolium bromide (MTT, 5 mg/ml; Sigma-Aldrich) was added to the cells at 37°C for 3 h. The resulted insoluble purple formazan products were dissolved by lysis buffer (composition: 10% Triton X-100, 0.1 N HCl, 18% isopropanol). The absorbance of the dissolved product at optical density (OD) 570 nm was read by using a FLx800 fluorescence microplate spectrophotometer (Bio-Tek, Winooski, VT, USA). The half maximal inhibitory concentration (IC50) of LM compounds was determined through the construction of a dose-response curve. MPP^+ at 4 mM (HMC3 cell viability: 65%−69%) or 0.62 mM [BE(2)-M17 cell viability: 79%−84%] was selected to induce inflammation for further experiments.
(In general: Tetrazolium assays rely on reduction of a dye to a coloured formazan, in cell work by metabolically active cells.)

The subject of a further series is NLRP3. As to the kind of experiment: Western blot NLRP3 in MPP^+-stimulated HMC3 cells. The series is classed as cell-based, human. The note with it: HMC3, 4 mM MPP^+ alone; untreated = 100%. As for the experimental part: (§3) HMC3 (2 × 10^5/6-well) or BE(2)-M17 (4 × 10^5/6-well) cells were lysed in buffer (composition: 50 mM Tris-HCl pH8.0, 2 mM EDTA pH8.0, 150 mM NaCl, 0.5% sodium deoxycholate, 0.1% SDS, 50 mM NaF, 1% NP40) containing the protease and/or phosphatase inhibitor cocktail (Sigma-Aldrich). After sonication, the lysates were centrifuged (12,000 × g for 10 min at 4°C) and protein concentrations determined (Bradford protein assay; Bio-Rad, Hercules, CA, USA). Aliquots of protein (20 μg) were separated by electrophoresis using 10%−12% SDS–polyacrylamide gel followed by transfer to a polyvinylidene fluoride (PVDF) membrane. […] The immune complexes were detected using horseradish peroxidase (HRP)-conjugated goat anti-mouse or goat anti-rabbit IgG antibody (1:5,000; GeneTex) and chemiluminescent HRP substrate (Millipore, Burlington, MA, USA). Immunoreactive bands were captured (ImageQuant™ LAS 4000, GE Healthcare, Chicago, IL, USA) and quantified (Multi Gauge V3.0 software, Fujifilm, Tokyo, Japan).

For the next series, the system named is caspase-6. As to the kind of experiment: caspase-6 activity assay in MPP^+-treated BE(2)-M17 cells. Particulars: BE(2)-M17, 0.62 mM MPP^+ alone; untreated = 100%. It counts as cell-based, human. As for the experimental part: (§4) BE(2)-M17 cells were plated onto six-well (4 × 10^5/well) and treated with retinoic acid, LM compounds (10 μM), and MPP^+ as described. Cells were collected on day 7 and lysed by six freeze/thaw cycles. Types of substrates applied were: Ac-Tyr-Val-Ala-Asp-7-amino-4-trifluoromethyl coumarin (YVAD-AFC) for caspase-1, Ac-Val-Glu-Ile-Asp-7-amino-4-trifluoromethyl coumarin (VEID-AFC) for caspase-6 (BioVision, Milpitas, CA, USA), and Ac-Asp-Glu-Val-Asp-7-amido-4-methylcoumarin (DEVD-AMC) for caspase-3 (Sigma-Aldrich). The reaction mixtures were incubated for 1.5 h at 37°C per the manufacturer's instructions. The fluorescence intensity at 400 nm excitation and 505 nm emission (caspase-1 and caspase-6) or 360 nm excitation and 460 nm emission (caspase-3) wavelengths were recorded (BioTek FLx800).

The test system of another series is IL-6. As to the kind of experiment: Western blot IL-6 in MPP^+-stimulated HMC3 cells. The series is classed as cell-based, human. Particulars: HMC3, 4 mM MPP^+ alone; untreated = 100%. As for the experimental part: as §3
Another series deals with HMC3 cells. As to the kind of experiment: cytotoxicity MTT assay in HMC3 cells. It counts as cell-based, human. Particulars: MPP^+ at 4 mM. The method, then: as §1, §2
The test system of the next series is caspase-1. The experiment in a line: caspase-1 activity assay in MPP^+-treated BE(2)-M17 cells. It counts as cell-based, human. The note with it: BE(2)-M17, 0.62 mM MPP^+ alone; untreated = 100%. As for the experimental part: as §4
In a further series the test system is iNOS. The experiment in a line: Western blot iNOS in MPP^+-stimulated HMC3 cells. The series is classed as cell-based, human. The note with it: HMC3, 4 mM MPP^+ alone; untreated = 100%. The method, then:
as §3
A general note: A western blot detects proteins with antibodies after separation by electrophoresis.

In a further series the test system is IL-1β. The experiment in a line: Western blot IL-1β in MPP^+-stimulated HMC3 cells. The series is classed as cell-based, human. Particulars: HMC3, 4 mM MPP^+ alone; untreated = 100%. As for the experimental part: as §3
The subject of a further series is TNF-α. As to the kind of experiment: Western blot TNF-α in MPP^+-stimulated HMC3 cells. The series is classed as cell-based, human. The note with it: HMC3, 4 mM MPP^+ alone; untreated = 100%. The method, then: as §3
Another series relates to CASP1. As to the kind of experiment: Western blot CASP1 in MPP^+-stimulated HMC3 cells. It counts as cell-based, human. Particulars: HMC3, 4 mM MPP^+ alone; untreated = 100%. As for the experimental part:
as §3

For the compound `CN(C)c1ccc(/C=C/C(=O)c2c(O)c3ccccc3oc2=O)cc1` [LM-021, (E)-3-(3-(4-(dimethylamino)phenyl)acryloyl)-4-hydroxy-2H-chromen-2-one], the “bioavailability and BBB penetration potential” value in [1] is “good bioavailability and BBB penetration potential”.
Take `O=C(/C=C/c1ccccc1O)c1c(O)c2ccccc2oc1=O` [LM-036]: in series [2], the “bioavailability and BBB penetration potential” value was “good bioavailability and BBB penetration potential”.
In the case of `C[n+]1ccc(-c2ccccc2)cc1` [MPP^+, 1-methyl-4-phenyl pyridinium, reference compound], the cell viability with BE(2)-M17 cells is 79%−84% and 80%; in the series with HMC3 cells, 65%−69%. For the same compound, the NLRP3 expression in the series with NLRP3 worked out at 233%. In addition, in the series with caspase-6, the caspase-6 activity is given as 116%. This compound displayed an IL-6 expression in the series on IL-6 of 182%. Also, the caspase-1 activity with caspase-1 amounted to 112%. For the same compound, in the series with iNOS, the iNOS expression came to 156%. For the same compound, the IL-1β expression with IL-1β came out at 326%. This compound also displayed a TNF-α expression in the series on TNF-α of 223%. Besides, in the series with CASP1, the CASP1 expression turned out to be 218%.
